# ± gives the expanded uncertainty stated by the source.
# Columns and labels:
# [1] = 93.2 kPa, Liquid; for speed of sound: Frequency=3 MHz, Sing-around technique in a fixed-path interferometer; for mass density: Vibrating tube method
# [2] = xn = mol fraction of the nth substance listed; conditions: 93.2 kPa, Liquid, x2 = 0; for speed of sound: Frequency=3 MHz, Sing-around technique in a fixed-path interferometer; for mass density: Vibrating tube method
SMILES,speed of sound ([1]; 293.15 K) [m/s],mass density ([1]; 293.15 K) [kg/m3],speed of sound ([1]; 298.15 K) [m/s],mass density ([1]; 298.15 K) [kg/m3],speed of sound ([1]; 303.15 K) [m/s],mass density ([1]; 303.15 K) [kg/m3],speed of sound ([1]; 308.15 K) [m/s],mass density ([1]; 308.15 K) [kg/m3],speed of sound ([1]; 313.15 K) [m/s],mass density ([1]; 313.15 K) [kg/m3],speed of sound ([2]; 293.15 K) [m/s],mass density ([2]; 293.15 K) [kg/m3],speed of sound ([2]; 298.15 K) [m/s],mass density ([2]; 298.15 K) [kg/m3],speed of sound ([2]; 303.15 K) [m/s],mass density ([2]; 303.15 K) [kg/m3],speed of sound ([2]; 308.15 K) [m/s],mass density ([2]; 308.15 K) [kg/m3],speed of sound ([2]; 313.15 K) [m/s],mass density ([2]; 313.15 K) [kg/m3]
CCCCO [butan-1-ol],1256.8 ± 5.3,809.523 ± 4,1239.7 ± 5.3,805.71 ± 4,1222.8 ± 5.3,801.872 ± 4,1206.1 ± 5.3,798.004 ± 4,1189.5 ± 5.2,794.103 ± 4,–,–,–,–,–,–,–,–,–,–
CCCCO [butan-1-ol] + CCCC(=O)[O-].CCCC[NH3+],–,–,–,–,–,–,–,–,–,–,1256.8 ± 5.3,809.523 ± 4,1239.7 ± 5.3,805.71 ± 4,1222.8 ± 5.3,801.872 ± 4,1206.1 ± 5.3,798.004 ± 4,1189.5 ± 5.2,794.103 ± 4
CCO [ethanol],1161 ± 5.2,789.657 ± 4,1143.8 ± 5.2,785.366 ± 4,1126.8 ± 5.2,781.043 ± 4,1109.9 ± 5.2,776.696 ± 4,1093.1 ± 5.2,772.313 ± 4,–,–,–,–,–,–,–,–,–,–
CCO [ethanol] + CCCC(=O)[O-].CCCC[NH3+],–,–,–,–,–,–,–,–,–,–,1161 ± 5.2,789.657 ± 4,1143.8 ± 5.2,785.366 ± 4,1126.8 ± 5.2,781.043 ± 4,1109.9 ± 5.2,776.696 ± 4,1093.1 ± 5.2,772.313 ± 4
CO [methanol],1119.1 ± 5.2,791.347 ± 4,1102.5 ± 5.2,786.636 ± 4,1086 ± 5.2,781.907 ± 4,1069.7 ± 5.2,777.156 ± 4,1053.6 ± 5.2,772.385 ± 4,–,–,–,–,–,–,–,–,–,–
CO [methanol] + CCCC(=O)[O-].CCCC[NH3+],–,–,–,–,–,–,–,–,–,–,1119.1 ± 5.2,791.347 ± 4,1102.5 ± 5.2,786.636 ± 4,1086 ± 5.2,781.907 ± 4,1069.7 ± 5.2,777.156 ± 4,1053.6 ± 5.2,772.385 ± 4
CCCC(=O)[O-].CCCC[NH3+] [n-butylammonium butanoate],1431.5 ± 5.3,928.794 ± 4,1410.3 ± 5.3,925.509 ± 4,1390.4 ± 5.3,922.217 ± 4,1371.5 ± 5.3,918.88 ± 4,1353.6 ± 5.3,915.567 ± 4,–,–,–,–,–,–,–,–,–,–
CCCCCO [pentan-1-ol],1292.8 ± 5.3,814.807 ± 4,1275.7 ± 5.3,811.144 ± 4,1258.8 ± 5.3,807.455 ± 4,1242.1 ± 5.3,803.736 ± 4,1225.5 ± 5.3,799.99 ± 4,–,–,–,–,–,–,–,–,–,–
CCCCCO [pentan-1-ol] + CCCC(=O)[O-].CCCC[NH3+],–,–,–,–,–,–,–,–,–,–,1292.8 ± 5.3,814.807 ± 4,1275.7 ± 5.3,811.144 ± 4,1258.8 ± 5.3,807.455 ± 4,1242.1 ± 5.3,803.736 ± 4,1225.5 ± 5.3,799.99 ± 4
CCCO [propan-1-ol],1223.1 ± 5.3,803.625 ± 4,1205.8 ± 5.3,799.62 ± 4,1188.6 ± 5.3,795.582 ± 4,1171.6 ± 5.3,791.511 ± 4,1154.9 ± 5.3,787.407 ± 4,–,–,–,–,–,–,–,–,–,–
CCCO [propan-1-ol] + CCCC(=O)[O-].CCCC[NH3+],–,–,–,–,–,–,–,–,–,–,1223.1 ± 5.3,803.625 ± 4,1205.8 ± 5.3,799.62 ± 4,1188.6 ± 5.3,795.582 ± 4,1171.6 ± 5.3,791.511 ± 4,1154.9 ± 5.3,787.407 ± 4

# From the NIST ThermoML archive (doi:10.1016/j.jct.2016.09.007)
